Here are results for one compound from patent US10232058B2, “Prostate-specific membrane antigen-targeted photosensitizers for photodynamic therapy” (THE JOHNS HOPKINS UNIVERSITY, priority 2013, dated 2019).

In general, Ki refers to the dissociation constant of the complex between target and ligand, obtained from inhibition or displacement.

Molecules are shown by their SMILES.

This assay concerns the target PSMA (Homo sapiens, UniProt Q04609). The assay is described as follows: fluorescence-based PSMA binding assay. To be noted: read-out: PSMA binding affinity Ki.

Sequence of PSMA (Q04609 whole entry): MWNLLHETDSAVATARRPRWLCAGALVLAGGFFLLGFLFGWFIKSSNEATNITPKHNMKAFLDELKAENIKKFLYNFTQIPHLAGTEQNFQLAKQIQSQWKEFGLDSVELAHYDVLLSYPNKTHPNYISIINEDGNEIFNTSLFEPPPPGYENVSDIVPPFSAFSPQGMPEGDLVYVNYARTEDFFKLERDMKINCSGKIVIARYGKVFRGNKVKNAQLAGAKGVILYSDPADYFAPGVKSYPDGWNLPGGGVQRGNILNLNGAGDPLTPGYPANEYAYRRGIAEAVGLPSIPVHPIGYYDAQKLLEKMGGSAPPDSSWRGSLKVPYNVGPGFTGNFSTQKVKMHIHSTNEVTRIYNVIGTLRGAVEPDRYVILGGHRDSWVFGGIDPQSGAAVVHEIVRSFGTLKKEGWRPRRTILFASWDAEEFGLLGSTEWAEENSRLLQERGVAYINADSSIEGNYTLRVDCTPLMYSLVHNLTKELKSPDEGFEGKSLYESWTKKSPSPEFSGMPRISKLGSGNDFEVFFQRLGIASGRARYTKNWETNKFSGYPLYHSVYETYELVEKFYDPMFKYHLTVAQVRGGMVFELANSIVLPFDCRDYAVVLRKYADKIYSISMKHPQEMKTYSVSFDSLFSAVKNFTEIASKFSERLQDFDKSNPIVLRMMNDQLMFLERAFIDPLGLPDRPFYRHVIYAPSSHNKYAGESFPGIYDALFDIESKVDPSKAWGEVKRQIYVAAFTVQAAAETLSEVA

On to `C=Cc1c(C)c2cc3nc(c4c5[nH]c(cc6nc(cc1[nH]2)C(C)=C6CC)c(C)c5C(=O)C4)[C@H](CCC(=O)NCCCCC(NC(=O)CCCCCCC(=O)NCCCC[C@H](NC(=O)N[C@@H](CCC(=O)O)C(=O)O)C(=O)O)C(=O)O)[C@H]3C` (stereo partly shown) [YC-6], for which the Ki is 1.2 nM.
